Assay results from patent US11738034B2, “Triphenylphosphonium-derivative compounds for eradicating cancer stem cells” (LUNELLA BIOTECH, INC., priority 2017, dated 2023).

Key:
[1] = system: MCF-7 human breast cancer cells; assay: ATP-depletion assay (CellTiter-Glo & Hoechst 33342) in MCF-7 cells; type: cell-based; conditions: for effect on ATP levels in initial screen (positive hit): MCF-7, ATP depletion screen of nine TPP-derivatives; for effect on ATP levels in validation (FIGS. 2-4): MCF-7 treated for 72 h; for Hoechst staining (%) / ATP level (%): MCF-7 cell line, 50 μM treatment for 72 hours, normalized to control; for Hoechst staining (%): cell viability
From the text: In order to identify new molecules that can be used to target mitochondria within CSCs, the inventors screened a variety of TPP-derivatives as described herein, by employing CellTiter-Glo to measure intracellular levels of ATP in adherent cancer cells (MCF-7) in 96-well plates. As 85% of cellular ATP is normally derived from mitochondrial metabolism, ATP levels are an excellent read-out to monitor mitochondrial function. In parallel, the same 96-well plates were also stained with Hoechst 33342, to measure DNA content, to gauge cell viability. Therefore, we randomly selected 9 TPP derivatives and subjected them to screening in our assay system.
With respect to the ATP-depletion assay (with CellTiter-Glo & Hoechst 33342), MCF-7 cells were treated with different TPP derivatives for 72 hours in a black 96-well plate then wells were washed with PBS and were stained with Hoechst 33342 dye at a final concentration of 10 μg/ml. Fluorescence was read by a plate reader at 355 nm (excitation), 460 nm (emission). After washing with PBS CellTiterGlo luminescent assay (Promega) was performed according to the manufacturer's protocols to determine intracellular ATP levels in the Hoechst dye stained cells. Both the fluorescent and luminescent data were normalized to control levels and were shown as percentage for comparison.

MCF-7 cells = assay: Mitochondrial oxygen consumption rate (OCR), Seahorse XFe96; type: cell-based, human; conditions: MCF-7, Seahorse, FIGS. 6-8
From the text: Some embodiments of the present approach relate to identifying TPP-derivatives compounds that target mitochondria in CSCs and represent potential anti-cancer therapies. To further validate that the ATP level reduction of the TPP compounds was indeed due to the inhibition of mitochondrial function, we directly measured mitochondrial oxygen consumption rates (OCR) using the Seahorse XFe96 metabolic flux analyser.
FIG. 6 illustrates the impaired mitochondrial function of MCF-7 cells after treatment with TPP Compound 1. FIGS. 7A and 7B illustrate the impaired mitochondrial function of MCF-7 cells after treatment with either TPP Compound 2 or TPP Compound 3. […] Oxygen consumption rate (OCR) was measured with a Seahorse XF96 Extracellular Flux Analyzer. Data are represented as mean+/−SEM. […] For FIG. 6, **p<0.01; ***p<0.001; indicates significance, all relative to the control. […] For FIG. 7, **p<0.01; ***p<0.001; indicates significance, all relative to the control. […] And for FIG. 8, **p<0.01; ***p<0.001; indicates significance, all relative to the control.
For measuring the mitochondrial OCR, mitochondrial function was determined by using the XF Cell Mito Stress Test Kit (Seahorse Bioscience, MA, USA) with a Seahorse XFe96 Extracellular Flux Analyzer (Seahorse Bioscience, MA, USA). MCF-7 cells were seeded in a specialized 96-well tissue culture plate (XF96 microplate). The next day, the TPP derivatives were added and the plate was incubated for 72 hours. Before the experiment media was changed to XF base medium (including 1 mM pyruvate, 2 mM glutamine and 10 mM glucose), cells were incubated at 37° C. in a CO2-free atmosphere for one hour before measurement. After detection of basal OCR (an indicator for mitochondrial respiration) OCR responses were evaluated towards the application of oligomycin (1 μM), FCCP (600 nM), and the combination of antimycin (1 μM) and rotenone (1 μM). From these measurements various parameters of mitochondrial function were determined. To determine cell viability in the measured wells sulphorodamine (SRB) assay was performed. Oxygen consumption rate values were then normalized to the given SRB values.

MCF-7 breast CSCs = assay: 3D Spheroid (mammosphere) assay, CSC propagation; type: cell-based, human; conditions: MCF-7, treated for 5 days in mammosphere media; read-out: IC-50, CSC propagation (mammosphere formation)
Protocol: Following validation, the inventors evaluated the effects of these TPP-derivative compounds on the propagation of CSCs, using the mammosphere assay as a read-out. […] The data presented in FIG. 9, from left to right, are TPP-derivatives in the following order: 2,4-dichlorobenzyl-TPP (black); 1-naphthylmethyl-TPP (inclined lines); 3-methylbenzyl-TPP (dotted lines); 2-chlorobenzyl-TPP (white); 2-butene-1,4-bis-TPP (horizontal lines). Cells were treated for 5 days in mammosphere media. Data are represented as mean+/−SEM.
For the 3D Spheroid (mammosphere) assay, a single cell suspension of MCF-7 cells was prepared using enzymatic (lx Trypsin-EDTA, Sigma Aldrich, #T3924) and manual disaggregation (25 gauge needle) to create a single cell suspension. […] Different TPP derivatives were previously diluted in the mammosphere media before addition of cells. […] After 5 days of culture, spheres >50 μm were counted using an eyepiece graticule and mammosphere numbers were normalized to control treatments (cells treated with vehicle only).

[2] = system: normal fibroblasts (hTERT-BJ1); assay: Cell viability (Hoechst) and intracellular ATP levels in normal fibroblasts; type: cell-based, human; conditions: hTERT-BJ1, 1 μM, 72 h
Protocol: Cell viability and intracellular ATP levels were determined in the same treated samples. Hoechst staining (%) of hTERT-BJ1 human fibroblasts (black); ATP level (%) of hTERT-BJ1 human fibroblasts (dotted); Hoechst staining (%) of MCF-7 cells (inclined lines); ATP level (%) of MCF-7 cells (white). TPP treatments at 1 μM, 72 h. Data are represented as mean+/−SEM. *p<0.05; **p<0.01; indicates significance, all relative to the control.
With respect to cell culture and reagents, the human breast adenocarcinoma cell line (MCF-7) was from the American Type Culture Collection (ATCC). hTERT-BJ1 cells were from Clontech, Inc. MCF-7 and hTERT-BJ1 cells were grown in DMEM supplemented with 10% fetal bovine serum, GlutaMAX and 1% penicillin-streptomycin and incubated at 37 C in a humidified 5% CO2 incubator. The medium was changed 2-3 times/week. […]
With respect to the ATP-depletion assay (with CellTiter-Glo & Hoechst 33342), MCF-7 cells were treated with different TPP derivatives for 72 hours in a black 96-well plate then wells were washed with PBS and were stained with Hoechst 33342 dye at a final concentration of 10 μg/ml. Fluorescence was read by a plate reader at 355 nm (excitation), 460 nm (emission). […]

| SMILES | effect on ATP levels in initial screen (positive hit) [1] | effect on ATP levels in validation (FIGS. 2-4) [1] | effect on mitochondrial oxygen consumption (MCF-7 cells) | Hoechst staining (%) [1] | ATP level (%) [1] | other results |
| --- | --- | --- | --- | --- | --- | --- |
| Cc1cccc(C[P+](c2ccccc2)(c2ccccc2)c2ccccc2)c1 [3-methylbenzyl-TPP] | significantly reduced ATP levels | progressively deplete cellular ATP levels | effectively inhibit mitochondrial oxygen consumption | – | – | – |
| c1ccc([P+](Cc2cccc3ccccc23)(c2ccccc2)c2ccccc2)cc1 [1-naphthylmethyl-TPP] | significantly reduced ATP levels | progressively deplete cellular ATP levels | effectively inhibit mitochondrial oxygen consumption | – | – | IC50 (MCF-7 breast CSCs): > 5000 nM |
| N#Cc1ccc(C[P+](c2ccccc2)(c2ccccc2)c2ccccc2)cc1 [4-cyanobenzyl-TPP] | – | – | – | 72.7% | 68.2% | – |
| N#CC[P+](c1ccccc1)(c1ccccc1)c1ccccc1 [cyanomethyl-TPP] | – | – | – | 97.2% | 95.1% | – |
| Clc1ccc(C[P+](c2ccccc2)(c2ccccc2)c2ccccc2)c(Cl)c1 [2,4-dichlorobenzyl-TPP] | significantly reduced ATP levels | progressively deplete cellular ATP levels | effectively inhibit mitochondrial oxygen consumption | – | – | – |
| CC1(C)CC(NC(=O)C[P+](c2ccccc2)(c2ccccc2)c2ccccc2)CC(C)(C)N1[O] [mito-TEMPO, (2-(2,2,6,6-Tetramethylpiperidin-1-oxyl-4-ylamino)-2-oxoethyl)triphenylphosphonium chloride, reference compound] | – | – | – | 100.0% | 100.0% | – |
| C(=CC[P+](c1ccccc1)(c1ccccc1)c1ccccc1)C[P+](c1ccccc1)(c1ccccc1)c1ccccc1 [2-butene-1,4-bis-TPP] | significantly reduced ATP levels | depletes ATP levels, relative to cell number | effectively inhibits mitochondrial oxygen consumption | – | – | effect on cell viability in human fibroblasts [2]: no effect on cell viability; reduction of ATP levels in human fibroblasts [2]: 25%; IC50 (MCF-7 breast CSCs): < 500 nM; decrease of ATP levels in MCF-7 cancer cells ([1]; MCF-7, 1 μM, 72 h): ~85%; reduction of cell viability in MCF-7 cancer cells ([1]; MCF-7, 1 μM, 72 h): ~65%; fold more effective at reducing ATP levels in cancer cells, relative to normal fibroblasts ([1]; MCF-7 versus hTERT-BJ1, 1 μM): 4.7 fold; fold more effective at reducing cell viability in cancer cells (versus fibroblasts) ([1]; MCF-7 versus hTERT-BJ1, 1 μM): 2.8 fold |
| Clc1ccccc1C[P+](c1ccccc1)(c1ccccc1)c1ccccc1 [2-chlorobenzyl-TPP] | significantly reduced ATP levels | progressively deplete cellular ATP levels | effectively inhibit mitochondrial oxygen consumption | – | – | – |
| c1ccc([P+](Cc2ccc(C[P+](c3ccccc3)(c3ccccc3)c3ccccc3)cc2)(c2ccccc2)c2ccccc2)cc1 [p-xylylenebis-TPP, p-xylylene-bis-TPP] | – | – | – | 69.1% | 43.9% | – |
